Values of other authors, collected in patent US20230105103A1, “THERAPEUTIC MOLECULES FOR COMBATING SEPSIS” (CENTRE FOR CELLULAR AND MOLECULAR PLATFORMS, priority 2019, published 2023).

System: mice in endotoxemia model
Settings: Panda et al., 2012; cited from earlier work

**Q.** Which protection of mice does the source give for chitohexaose [CHTX] here?
**A.** The protection of mice was “protect mice”.
